Among the data in PubChem BioAssay AID2060901 (Molecular Pharmacology Branch, DTP, NCI, 2025) are IC50 and viability, T/C values, retold here.

This assay relates to 422866-222-R5-J1-PDC complex spheroids viability. The assay can be described thus: Anticancer human tumor 422866-222-R5-J1-PDC patient-derived pancreatic adenocarcinoma cell line growth inhibition [RAS]. The note with it: for viability, T/C: stronger effect = lower value. An excerpt: RAS pathway inhibitors in Combinations in Complex Spheroids
A high-throughput screen of multi-cell type tumor spheroids was designed to identify active combinations of RAS pathway inhibitors and targeted small molecules. Complex spheroids include a stromal component modeled by human endothelial cells (HUVEC) and fibroblasts modeled by human mesenchymal stem cells (MSCs). The concentration ranges selected for each drug and investigational agent were based upon clinically achievable concentrations if the clinical Cmax of the agent was known.
Compounds. The drugs and investigational agents: abemaciclib (NSC768073), cobimetinib (NSC768068), divarasib (GDC6063, NSC841802), docetaxel (NSC628503), GDC-1971 (RLY-1971, NSC841576), gemcitabine (NSC613327), inavolisib (NSC800729), ipatasertib (NSC767898), KB-0742 (NSC834161), MRTX-1133 (NSC836407), osimertinib (NSC779217), RMC-4630 (NSC839698), RMC-6236 (NSC851965), RMC-6291 (NSC852671), Ro-3306 (NSC812927), sapanisertib (NSC764658), SN-38 (NSC673596), staurosporine (NSC755774), SY5609 (NSC837396), and tovorafenib (DAY101, NSC766906), were obtained from the National Cancer Institute (NCI) Developmental Therapeutics Program Chemical Repository. The FDA-approved anticancer drug set is available from the NCI Developmental Therapeutics Program. […] The stock solutions were prepared in dimethyl sulfoxide (DMSO, Sigma-Aldrich, St. Louis, MO, cat. D2650) at 800-fold the tested concentration and stored at -70 degrees C prior to their use. All drugs and investigational agents were tested over a range starting from a high concentration at or near the clinical Cmax and decreasing in half-log increments. If the clinical Cmax for an agent had not been determined, the highest concentration tested was 10 microM.
Cell Culture. All cells were maintained in an incubator at 37 degrees C and 5% CO2 with 95% humidity. The PDC lines were cultured according to standard operating procedures established by the NCI PDMR. All PDCs were thawed and cultured in Matrigel-coated flasks prepared with a working solution of 1X Ham's F-12 nutrient mix, without supplementation (Invitrogen, Waltham, MA, cat. 11765054), 100 U/mL penicillin-streptomycin (Invitrogen, cat. 15140122), and 2.5% Matrigel (Corning Inc., Corning, NY, cat. 354248) for the first three passages. The 362531-283-R-J2-PDC and 782815-120-R-J1-PDC lines were cultured in 6C/Colon 1B media, which includes advanced DMEM/F-12 (Thermo Fisher Scientific, cat. 12634028), 10 mM HEPES (Thermo Fisher Scientific, cat. 15630080), 1X GlutaMAX supplement (Thermo Fisher Scientific, cat. 35050061), 0.1 mg/mL primocin (InvivoGen, San Diego, CA, cat. ant-pm-2), 10% defined fetal bovine serum, heat inactivated (HyClone Laboratories Inc., Logan, UT, cat. SH30070.03HI), 50% L-WRN conditioned media (ATCC, cat. CRL-3276), 1.25 mM N-Acetyl-L-cysteine (Sigma-Aldrich, cat. A9165), 10 mM nicotinamide (Sigma-Aldrich, cat. N0636), 1X B-27 supplement (Thermo Fisher Scientific, cat. 17504044), 1X N-2 supplement (Thermo Fisher Scientific, cat. 17502048), 50 ng/mL human EGF (Thermo Fisher Scientific, cat. PHG0311), and 10 microM Y-27632 dihydrochloride (Tocris Bioscience, cat. 1254). The K12877-001-R-J1-PDC line was cultured in 6I media, which includes all 6C/Colon 1B media plus 10 ng/mL human FGF-10 (PeproTech, cat. 100-26), 1 ng/mL human FGF-2 (PeproTech, cat. 100-18B), 1 µM prostaglandin E2 (Tocris Bioscience, cat. 2296), […] hydrocortisone (Sigma-Aldrich, cat. H4001), and […] bovine insulin (Sigma-Aldrich, cat. I6634). The K86415-001-R-J1-PDC line was cultured in 6D media, which includes all 6C/Colon 1B media components minus the L-WRN conditioned media. The 485176-168-R4-J1-PDC was cultured in PANC media, which includes all 6C/Colon 1B media plus 100 ng/mL human FGF-10 (PeproTech, cat. 100-26), 500 nM SB-431542 (Selleckchem, cat. S1067), and 10 nM gastrin (Tocris Bioscience, cat. 3006). […]
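Also: spheroids exposed to compounds for 7 days.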

Turning to `CCc1c2c(nc3ccc(O)cc13)-c1cc3c(c(=O)n1C2)COC(=O)[C@]3(O)CC` + C#Cc1c(F)ccc2cc(O)cc(-c3ncc4c(N5CC6CCC(C5)N6)nc(OCC56CCCN5CC(F)C6)nc4c3F)c12, the IC50 (as a rule, the point on the concentration scale where inhibition reaches its midpoint) runs as follows: (curve of first compound, second compound 0.0316 µM) 2.85 nM; (curve of first compound, second compound 0.1 µM) 2.74 nM; (curve of first compound, second compound 0.316 µM) 95.2 nM; (curve of first compound, second compound 1 µM) under 0.949 nM; (curve of first compound, second compound 3.16 µM) under 0.949 nM; (curve of first compound, second compound 10 µM) under 0.949 nM. In addition, the viability, T/C (usually the result in the treated group divided by that in the control group, in per cent) is, setting by setting: (second compound 0.0316 µM, first compound 0.000949 µM) 80.6%; (second compound 0.0316 µM, first compound 0.003 µM) 49.4%; (second compound 0.0316 µM, first compound 0.00949 µM) 39.9%; (second compound 0.0316 µM, first compound 0.03 µM) 41.9%; (second compound 0.0316 µM, first compound 0.0949 µM) 48.5%; (second compound 0.0316 µM, first compound 0.3 µM) 45.5%. Also, the viability, T/C reads like this: (second compound 0.1 µM, first compound 0.000949 µM) 75.2%; (second compound 0.1 µM, first compound 0.003 µM) 49.4%; (second compound 0.1 µM, first compound 0.00949 µM) 35.2%; (second compound 0.1 µM, first compound 0.03 µM) 49.8%; (second compound 0.1 µM, first compound 0.0949 µM) 58.4%; (second compound 0.1 µM, first compound 0.3 µM) 36.1%. The viability, T/C was 65.4% (second compound 0.316 µM, first compound 0.000949 µM); 36.4% (second compound 0.316 µM, first compound 0.003 µM); 49.8% (second compound 0.316 µM, first compound 0.00949 µM); 56.5% (second compound 0.316 µM, first compound 0.03 µM); 49.2% (second compound 0.316 µM, first compound 0.0949 µM); 34.7% (second compound 0.316 µM, first compound 0.3 µM). Besides, the viability, T/C is, setting by setting: (second compound 1 µM, first compound 0.000949 µM) 48.6%; (second compound 1 µM, first compound 0.003 µM) 35.9%; (second compound 1 µM, first compound 0.00949 µM) 35.4%; (second compound 1 µM, first compound 0.03 µM) 38.2%; (second compound 1 µM, first compound 0.0949 µM) 53.3%; (second compound 1 µM, first compound 0.3 µM) 31.2%. The viability, T/C is 26.3% (second compound 3.16 µM, first compound 0.000949 µM); 28.7% (second compound 3.16 µM, first compound 0.003 µM); 22.4% (second compound 3.16 µM, first compound 0.00949 µM); 22.9% (second compound 3.16 µM, first compound 0.03 µM); 25.6% (second compound 3.16 µM, first compound 0.0949 µM); 25.1% (second compound 3.16 µM, first compound 0.3 µM). Also, the viability, T/C is, setting by setting: (second compound 10 µM, first compound 0.000949 µM) 23%; (second compound 10 µM, first compound 0.003 µM) 21%; (second compound 10 µM, first compound 0.00949 µM) 20.7%; (second compound 10 µM, first compound 0.03 µM) 18.1%; (second compound 10 µM, first compound 0.0949 µM) 19.5%; (second compound 10 µM, first compound 0.3 µM) 13.5%.
For `CC(=O)OC12COC1CC(O)C1(C)C(=O)C(O)C3=C(C)C(OC(=O)C(O)C(NC(=O)OC(C)(C)C)c4ccccc4)CC(O)(C(OC(=O)c4ccccc4)C21)C3(C)C` (stereo not drawn), the viability, T/C is, setting by setting: (compound 0.0316 µM) 60% [middle of 4 runs]; (compound 0.1 µM) 71.8% [middle of 4 runs]; (compound 0.316 µM) 71.4% [middle of 4 runs]; (compound 1 µM) 78.2% [middle of 4 runs]; (compound 10 µM) 77.4% [middle of 4 runs]. For the same molecule, the IC50 (curve of compound) was over 10000 nM.
